Measurements as given in PubChem BioAssay AID1745844 (Carcinogenic Potency Database (CPDB), 2022).
Calls of active or inactive are those of the source. How the calls were made is not given here.

Test system: rodent lifetime carcinogenesis bioassay, tumor incidence TD50
Experiment: carcinogenic potency in animals, long-term in vivo studies, CPDB compilation (AID 1745844)

## C/C=C/C=C/C=O
mouse, strain B6C3F1, females, by gavage, site: forestomach, lesion: squamous-cell carcinoma + squamous-cell papilloma, dosed 104 weeks, study length 104 weeks
  TD50: 129 mg/kg/day
mouse, strain B6C3F1, females, by gavage, site: forestomach, lesion: squamous-cell carcinoma, dosed 104 weeks, study length 104 weeks
  TD50: 580 mg/kg/day
mouse, strain B6C3F1, females, by gavage, site: forestomach, lesion: squamous-cell papilloma, dosed 104 weeks, study length 104 weeks
  TD50: 165 mg/kg/day
mouse, strain B6C3F1, females, by gavage, site: skin, lesion: fibrosarcoma + fibrous histiocytoma, dosed 104 weeks, study length 104 weeks
  TD50: 218 mg/kg/day
mouse, strain B6C3F1, males, by gavage, site: any site (literature study), lesion: several types, types named in the paper, dosed 104 weeks, study length 104 weeks
  TD50: 279 mg/kg/day
mouse, strain B6C3F1, males, by gavage, site: forestomach, lesion: squamous-cell carcinoma + squamous-cell papilloma, dosed 104 weeks, study length 104 weeks
  TD50: 279 mg/kg/day
mouse, strain B6C3F1, males, by gavage, site: forestomach, lesion: squamous-cell papilloma, dosed 104 weeks, study length 104 weeks
  TD50: 354 mg/kg/day
mouse, strain B6C3F1, males, by gavage, site: liver, lesion: hepatocellular adenoma + hepatoblastoma + hepatocellular carcinoma, dosed 104 weeks, study length 104 weeks
  TD50: 211 mg/kg/day
mouse, strain B6C3F1, males, by gavage, site: lung, lesion: alveolar/bronchiolar adenoma + alveolar/bronchiolar carcinoma, dosed 104 weeks, study length 104 weeks
  TD50: 1980 mg/kg/day
mouse, strain B6C3F1, males, by gavage, site: tongue, lesion: squamous-cell carcinoma, dosed 104 weeks, study length 104 weeks
  TD50: 2080 mg/kg/day
rat, strain Fischer 344, females, by gavage, site: any site (literature study), lesion: several types, types named in the paper, dosed 104 weeks, study length 104 weeks
  TD50: 112 mg/kg/day
rat, strain Fischer 344, females, by gavage, site: forestomach, lesion: squamous-cell papilloma, dosed 104 weeks, study length 104 weeks
  TD50: 102 mg/kg/day
rat, strain Fischer 344, males, by gavage, site: adrenal medulla, lesion: pheochromocytoma, malignant, dosed 104 weeks, study length 104 weeks
  TD50: 415 mg/kg/day
rat, strain Fischer 344, males, by gavage, site: any site (literature study), lesion: several types, types named in the paper, dosed 104 weeks, study length 104 weeks
  TD50: 107 mg/kg/day
rat, strain Fischer 344, males, by gavage, site: forestomach, lesion: squamous-cell carcinoma + squamous-cell papilloma, dosed 104 weeks, study length 104 weeks
  TD50: 44.7 mg/kg/day
rat, strain Fischer 344, males, by gavage, site: forestomach, lesion: squamous-cell papilloma, dosed 104 weeks, study length 104 weeks
  TD50: 46.1 mg/kg/day

## N/C(=N\O)c1ccc([N+](=O)[O-])o1
rat, strain Sprague-Dawley, females, in feed, site: any site (literature study), lesion: several types, types named in the paper, dosed 46 weeks, study length 66 weeks
  TD50: 42 mg/kg/day (inactive)

## S=c1[nH]c2ccccc2s1
mouse, strain B6AKF1, females, oral dosing, site: any site (literature study), lesion: several types, types named in the paper, dosed 76 weeks, study length 76 weeks
  carcinogen call: negative (inactive)
mouse, strain B6AKF1, females, oral dosing, site: liver, lesion: hepatoma, dosed 76 weeks, study length 76 weeks
  carcinogen call: negative (inactive)
mouse, strain B6AKF1, females, oral dosing, site: lung, lesion: adenoma, dosed 76 weeks, study length 76 weeks
  carcinogen call: negative (inactive)
mouse, strain B6AKF1, males, oral dosing, site: any site (literature study), lesion: several types, types named in the paper, dosed 76 weeks, study length 76 weeks
  TD50: 105 mg/kg/day (inactive)
mouse, strain B6AKF1, males, oral dosing, site: liver, lesion: hepatoma, dosed 76 weeks, study length 76 weeks
  carcinogen call: negative (inactive)
mouse, strain B6AKF1, males, oral dosing, site: lung, lesion: adenoma, dosed 76 weeks, study length 76 weeks
  carcinogen call: negative (inactive)
mouse, strain B6C3F1, females, by gavage, site: liver, lesion: hepatocellular adenoma + hepatocellular carcinoma + neoplastic nodule, dosed 103 weeks, study length 104 weeks
  TD50: 2160 mg/kg/day
mouse, strain B6C3F1, females, by gavage, site: liver, lesion: hepatocellular adenoma + hepatocellular carcinoma, dosed 103 weeks, study length 104 weeks
  TD50: 2160 mg/kg/day
mouse, strain B6C3F1, females, oral dosing, site: any site (literature study), lesion: several types, types named in the paper, dosed 76 weeks, study length 76 weeks
  TD50: 283 mg/kg/day (inactive)
mouse, strain B6C3F1, females, oral dosing, site: liver, lesion: hepatoma, dosed 76 weeks, study length 76 weeks
  carcinogen call: negative (inactive)
mouse, strain B6C3F1, females, oral dosing, site: lung, lesion: adenoma, dosed 76 weeks, study length 76 weeks
  TD50: 283 mg/kg/day (inactive)
mouse, strain B6C3F1, males, by gavage, site: any site (literature study), lesion: several types, types named in the paper, dosed 103 weeks, study length 104 weeks
  TD50: 3330 mg/kg/day (inactive)
mouse, strain B6C3F1, males, by gavage, site: liver, lesion: hepatocellular adenoma + hepatocellular carcinoma + neoplastic nodule, dosed 103 weeks, study length 104 weeks
  TD50: 3700 mg/kg/day
mouse, strain B6C3F1, males, oral dosing, site: any site (literature study), lesion: several types, types named in the paper, dosed 76 weeks, study length 76 weeks
  TD50: 17 mg/kg/day (inactive)
mouse, strain B6C3F1, males, oral dosing, site: liver, lesion: hepatoma, dosed 76 weeks, study length 76 weeks
  TD50: 56.2 mg/kg/day (inactive)
mouse, strain B6C3F1, males, oral dosing, site: lung, lesion: adenoma, dosed 76 weeks, study length 76 weeks
  TD50: 120 mg/kg/day (inactive)
rat, strain Fischer 344, females, by gavage, site: adrenal medulla + pituitary gland, anterior, lesion: pheochromocytoma + adenoma, NOS, dosed 103 weeks, study length 104 weeks
  TD50: 247 mg/kg/day
rat, strain Fischer 344, females, by gavage, site: adrenal medulla, lesion: pheochromocytoma, dosed 103 weeks, study length 104 weeks
  TD50: 805 mg/kg/day
rat, strain Fischer 344, females, by gavage, site: any site (literature study), lesion: several types, types named in the paper, dosed 103 weeks, study length 104 weeks
  TD50: 576 mg/kg/day
rat, strain Fischer 344, females, by gavage, site: pituitary gland, anterior, lesion: adenoma, NOS, dosed 103 weeks, study length 104 weeks
  TD50: 343 mg/kg/day
rat, strain Fischer 344, males, by gavage, site: adrenal medulla + multiple organs + pancreas + preputial gland, lesion: pheochromocytoma + pheochromocytoma, malignant + mononuclear-cell leukemia + acinar-cell adenoma + adenoma, NOS + carcinoma, NOS, dosed 103 weeks, study length 104 weeks
  TD50: 157 mg/kg/day
rat, strain Fischer 344, males, by gavage, site: adrenal medulla, lesion: pheochromocytoma + pheochromocytoma, malignant, dosed 103 weeks, study length 104 weeks
  TD50: 394 mg/kg/day
rat, strain Fischer 344, males, by gavage, site: any site (literature study), lesion: several types, types named in the paper, dosed 103 weeks, study length 104 weeks
  TD50: 136 mg/kg/day
rat, strain Fischer 344, males, by gavage, site: multiple organs + tunica albuginea, lesion: mesothelioma, malignant + mesothelioma, NOS, dosed 103 weeks, study length 104 weeks
  TD50: 3200 mg/kg/day
rat, strain Fischer 344, males, by gavage, site: multiple organs, lesion: mononuclear-cell leukemia, dosed 103 weeks, study length 104 weeks
  TD50: 401 mg/kg/day
rat, strain Fischer 344, males, by gavage, site: pancreas, lesion: acinar-cell adenoma, dosed 103 weeks, study length 104 weeks
  TD50: 345 mg/kg/day
rat, strain Fischer 344, males, by gavage, site: pituitary gland, anterior, lesion: adenoma, NOS, dosed 103 weeks, study length 104 weeks
  TD50: 333 mg/kg/day
rat, strain Fischer 344, males, by gavage, site: preputial gland, lesion: adenoma, NOS + carcinoma, NOS, dosed 103 weeks, study length 104 weeks
  TD50: 1580 mg/kg/day
rat, strain Fischer 344, males, by gavage, site: preputial gland, lesion: adenoma, NOS, dosed 103 weeks, study length 104 weeks
  TD50: 1710 mg/kg/day
rat, strain Fischer 344, males, by gavage, site: subcutaneous tissue, lesion: fibroma + neurofibroma, dosed 103 weeks, study length 104 weeks
  TD50: 1900 mg/kg/day
rat, strain Fischer 344, males, by gavage, site: subcutaneous tissue, lesion: fibroma, dosed 103 weeks, study length 104 weeks
  TD50: 2200 mg/kg/day
rat, strain Fischer 344, males, by gavage, site: subcutaneous tissue, lesion: fibrosarcoma + fibroma + neurofibroma + sarcoma, NOS, dosed 103 weeks, study length 104 weeks
  TD50: 1730 mg/kg/day
rat, strain Fischer 344, males, by gavage, site: testis, lesion: interstitial-cell tumor, dosed 103 weeks, study length 104 weeks
  TD50: 240 mg/kg/day

## CCN(CC)c1ccc(N=Nc2cc[n+]([O-])cc2)cc1
rat, strain Sprague-Dawley, males, in feed, site: liver, lesion: one or several types, types not named, dosed 52 weeks, study length 52 weeks
  carcinogen call: positive

## O=S1(=O)N=C(O)c2ccccc21
rat, strain Fischer 344, males, in feed, site: forestomach, lesion: papilloma, dosed 72 weeks, study length 73 weeks
  carcinogen call: negative (inactive)
rat, strain Fischer 344, males, in feed, site: urinary bladder, lesion: carcinoma, dosed 72 weeks, study length 73 weeks
  carcinogen call: negative (inactive)

## COc1ccc(C(=O)Nc2c(Cl)cncc2Cl)cc1OC1CCCC1
rat, strain IcoIbm:OFA (Sprague-Dawley derived), females, inhaled, site: nasal cavity, olfactory epithelium, lesion: carcinoma, dosed 102 weeks, study length 102 weeks
  TD50: 24.6 mg/kg/day
rat, strain IcoIbm:OFA (Sprague-Dawley derived), females, inhaled, site: nasal cavity, olfactory epithelium, lesion: malignant tumor, dosed 102 weeks, study length 102 weeks
  TD50: 1.22 mg/kg/day
rat, strain IcoIbm:OFA (Sprague-Dawley derived), females, inhaled, site: nasal cavity, olfactory epithelium, lesion: neuroblastoma, in situ, dosed 102 weeks, study length 102 weeks
  TD50: 12.2 mg/kg/day
rat, strain IcoIbm:OFA (Sprague-Dawley derived), females, inhaled, site: nasal cavity, olfactory epithelium, lesion: neuroblastoma, dosed 102 weeks, study length 102 weeks
  TD50: 1.68 mg/kg/day
rat, strain IcoIbm:OFA (Sprague-Dawley derived), females, inhaled, site: nasal cavity, olfactory epithelium, lesion: several types, types named in the paper, dosed 102 weeks, study length 102 weeks
  TD50: 1.18 mg/kg/day
rat, strain IcoIbm:OFA (Sprague-Dawley derived), females, inhaled, site: nasal cavity, olfactory region, Bowman's gland, lesion: adenocarcinoma, dosed 102 weeks, study length 102 weeks
  TD50: 24.6 mg/kg/day
rat, strain IcoIbm:OFA (Sprague-Dawley derived), females, inhaled, site: nasal cavity, olfactory region, Bowman's gland, lesion: adenoma, dosed 102 weeks, study length 102 weeks
  TD50: 24.7 mg/kg/day
rat, strain IcoIbm:OFA (Sprague-Dawley derived), males, inhaled, site: nasal cavity, olfactory epithelium, lesion: carcinoma, dosed 104 weeks, study length 104 weeks
  TD50: 51.5 mg/kg/day
rat, strain IcoIbm:OFA (Sprague-Dawley derived), males, inhaled, site: nasal cavity, olfactory epithelium, lesion: malignant tumor, dosed 104 weeks, study length 104 weeks
  TD50: 2.48 mg/kg/day
rat, strain IcoIbm:OFA (Sprague-Dawley derived), males, inhaled, site: nasal cavity, olfactory epithelium, lesion: neuroblastoma, in situ, dosed 104 weeks, study length 104 weeks
  TD50: 17 mg/kg/day
rat, strain IcoIbm:OFA (Sprague-Dawley derived), males, inhaled, site: nasal cavity, olfactory epithelium, lesion: neuroblastoma, dosed 104 weeks, study length 104 weeks
  TD50: 3.75 mg/kg/day
rat, strain IcoIbm:OFA (Sprague-Dawley derived), males, inhaled, site: nasal cavity, olfactory epithelium, lesion: several types, types named in the paper, dosed 104 weeks, study length 104 weeks
  TD50: 2.22 mg/kg/day
rat, strain IcoIbm:OFA (Sprague-Dawley derived), males, inhaled, site: nasal cavity, olfactory region, Bowman's gland, lesion: adenocarcinoma, dosed 104 weeks, study length 104 weeks
  TD50: 25.6 mg/kg/day
rat, strain IcoIbm:OFA (Sprague-Dawley derived), males, inhaled, site: nasal cavity, olfactory region, Bowman's gland, lesion: adenoma, dosed 104 weeks, study length 104 weeks
  TD50: 12.7 mg/kg/day

## COc1ccc2nc(S(=O)Cc3ncc(C)c(OC)c3C)[nH]c2c1 (stereo not drawn)
rat, strain Sprague-Dawley, females, by gavage, site: gastric mucosa, lesion: carcinoid tumor, malignant, dosed 104 weeks, study length 104 weeks
  TD50: 63 mg/kg/day
rat, strain Sprague-Dawley, males, by gavage, site: gastric mucosa, lesion: carcinoid tumor, malignant, dosed 104 weeks, study length 104 weeks
  TD50: 1120 mg/kg/day

## CC(O)CN(CC(O)CO)N=O (stereo not drawn)
hamster, strain Syrian Golden, females, by gavage, site: forestomach, lesion: several types, types named in the paper, dosed 41 weeks, study length 75 weeks
  TD50: 1.59 mg/kg/day
hamster, strain Syrian Golden, females, by gavage, site: forestomach, lesion: squamous-cell papilloma, dosed 41 weeks, study length 75 weeks
  TD50: 1.59 mg/kg/day
hamster, strain Syrian Golden, females, by gavage, site: liver, lesion: cholangioadenoma, dosed 41 weeks, study length 75 weeks
  TD50: 32.6 mg/kg/day
rat, strain Fischer 344, females, in drinking water, site: esophagus, lesion: carcinoma, dosed 37 weeks, study length 85 weeks
  TD50: 0.117 mg/kg/day
rat, strain Fischer 344, females, in drinking water, site: esophagus, lesion: several types, types named in the paper, dosed 37 weeks, study length 85 weeks
  TD50: 0.0535 mg/kg/day
rat, strain Fischer 344, females, in drinking water, site: forestomach, lesion: several types, types named in the paper, dosed 37 weeks, study length 85 weeks
  TD50: 0.178 mg/kg/day
rat, strain Fischer 344, females, in drinking water, site: liver, lesion: hepatocellular carcinoma, dosed 37 weeks, study length 85 weeks
  TD50: 2.4 mg/kg/day
rat, strain Fischer 344, females, in drinking water, site: tongue, lesion: several types, types named in the paper, dosed 37 weeks, study length 85 weeks
  TD50: 0.0888 mg/kg/day
rat, strain Fischer 344, females, in drinking water, site: tongue, lesion: squamous-cell carcinoma, dosed 37 weeks, study length 85 weeks
  TD50: 0.241 mg/kg/day
